Experimental data published in US8633161B2, “Therapeutic agents for the treatment of leukemia” (The Ohio State University Research Foundation, priority 2005, dated 2014).

What was measured:
[1] = tested on: primary CML-BC, p210-BCR/ABL and p190-BCR/ABL expressing cell lines; assay: FTY720 in vitro: proliferation, clonogenic potential and apoptosis of BCR/ABL-expressing cells; type: cell-based; settings: 2.5 μM FTY720, imatinib-sensitive and -resistant p210 and p190 cell lines
Description: We studied the in vitro effect of FTY720 and derivative compounds on proliferation rate, clonogenic potential, and apoptosis in imatinib-sensitive and -resistant p210-BCR/ABL-expressing cells and p190-BCR/ABL-expressing cells. We then investigated the in vivo antileukemic potential of FTY720 in a mouse-model of imatinib-resistant CML-BC,
(§1) We obtained FTY720 synthesized using previously published methods (see Budde, K., et al., First human trial of FTY720, a novel immunomodulator, in stable renal transplant patients. J Am Soc Nephrol, (2002) 13:1073-83). Cells in liquid culture and in methylcellulose colony assays were cultured in the presence of 2.5 μM FTY720. SCID mice were i.v. injected with 5×10^5 T315I BCR/ABL-transduced 32Dc13 cells and levels of BCR/ABL in the peripheral blood were assessed by nested reverse transcriptase PCR. Upon establishment of a leukemia-like disease, mice were i.p. injected daily with FTY720 (250 μg/mouse/day). The disease process was monitored weekly by nested reverse transcriptase PCR. Apoptosis was assessed by AnnexinV/PI staining on untreated vs. treated cells.

[2] = tested on: T315I BCR/ABL-transduced 32Dc13 cells; type: in vivo
Protocol: as §1

[3] = tested on: BCR/ABL; assay: Western blot of BCR/ABL activity (phosphotyrosine) and expression; type: cell-based; settings: upon treatment with FTY720 2.5 μM
Protocol: Cells (10^7) were lysed in 100 μl of RIPA buffer (150 mM NaCl, 1% NP-40, 0.1% SDS, 50 mM Tris [pH 8.0]) supplemented with 1 mM PMSF, 25 μg/ml aprotinin, 10 μg/ml leupeptin, 100 μg/ml pepstatin A, 5 mM benzamidine, 1 mM Na3VO4, 50 mM NaF, 10 mM β-glycerol-phosphate. After incubation on ice (30 min), lysates were clarified (12,000×g, 15 min, 4° C.), denatured, and subjected to SDS-PAGE and Western blot (Iervolino et al., 2002). The antibodies used were goat polyclonal anti-SET(I2PP2A), -pp32(I1PP2A), and -hnRNP A1 and rabbit polyclonal anti-SHP-1 (Santa Cruz Biotechnology); monoclonal anti-Abl (Ab-3), -c-myc (Ab-2), -phosphotyrosine PY20 (Ab-4), and -pBAD^S112 (Ab-1) (EMD); monoclonal anti-hnRNP A1 (9H10) (G. Dreyfuss, University of Pennsylvania, Philadelphia, Pa.); monoclonal anti-GRB2 and -Rb (BD TransLab Inc.); monoclonal anti-HA (Covance); monoclonal anti-PP2Ac, clone 1D6 (Upstate Inc.); monoclonal anti-FLAG, clone M2 (Sigma); monoclonal anti-pERK^T202/Y204 and rabbit polyclonal anti-pAKT^T308, pSTAT5^Y694, -pJak2^Y1007/1008, -Jak2, -BAD, -Akt, and -ERK1/2 (Cell Signaling Technology Inc.); monoclonal anti-STATS (Invitrogen); rabbit monoclonal anti-pPP2A^Y307 (Epitomics); rabbit polyclonal anti-PR65/A (Calbiochem). IPs were carried out in 20 mM HEPES (pH 7.0), 150 mM NaCl, and 0.2% NP-40 supplemented with protease and phosphatase inhibitors. Lysates were precleared and immunoprecipitated with Ab-coated beads for 3 hr at 4° C. After washings, IPs were subjected to SDS-PAGE and Western blot.

[4] = tested on: untransduced 32Dc13 cells and primary normal bone marrow cells; assay: FTY720 on cells not expressing the oncogene; type: cell-based; settings: untransduced 32Dc13 cells and primary normal bone marrow cells from healthy donors; FTY720 2.5 μM
Protocol: as §1

[5] = tested on: Akt; assay: Western blot of phosphorylated and total Akt; type: cell-based; settings: FTY720-treated 32D-BCR/ABL cells
[6] = molecular target: T1, PP2A (Mus musculus, UniProt P63330); assay: PP2A IP phosphatase assay on lysates of treated cells; type: cell-based; settings: FTY720 2.5 μM, BCR/ABL-transformed cell lines
T1 construct: endogenous in cells; host or cells: 32Dc13, 32D-BCR/ABL, 32D-BCR/ABL-T315I, 32D-p210 Y253H, BaF3-p210 T315I, K562, primary CML-BC CD34+ and NBM CD34+ cells
Protocol: PP2A phosphatase assays were carried out using the PP2A IP phosphatase assay kit (Upstate). Briefly, protein lysates (50 μg) in 100 μl of 20 mM HEPES (pH 7.0)/100 mM NaCl, 5 μg of PP2Ac antibody (Upstate), and 25 μl of Protein A-agarose were added to 400 μl of 50 mM Tris (pH 7.0)/100 mM CaCl2, and IPs were carried out at 4° C. for 2 hr. IPs were washed and used in the phosphatase reaction according to the manufacturer's protocol. Specificity of the PP2A assay was assessed by titration with okadaic acid and by ascertaining the absence of PP1a in the PP2A immunoprecipitates (Figure S2A). As internal control, the amount of immunoprecipitated PP2A was also monitored by anti-PP2Ac Western blots (Figure S2B).

With CCCCCCCCc1ccc(CCC(N)(CO)CO)cc1 [FTY720] the “growth, apoptosis and clonogenic potential” value [1] was “significant growth inhibition, apoptosis and impaired clonogenic potential”, the mice alive ([2]; FTY720 250 μg/mouse/day i.p., after 20 weeks of treatment) was “more than 50%” and the signs of toxicity ([2]; control group that received only the drug) was “no signs of toxicity”. The BCR/ABL activity [3] was “inactivated”, the “inhibitory effect on cells not expressing the oncogene” value [4] was “no effect was detected” and the Akt phosphorylation/activity [5] was “Dephosphorylation and inactivation”. The “expression of PP2A protein levels” value [6] was “without increased expression” and the PP2A activity ([6]; prior to induction of apoptosis) was “induces”.
